Experimental findings from ChEMBL document CHEMBL3046638, “Synthesis and anticonvulsant activity of novel imidazol5(4H)one and 5-oxo-4,5-dihydroimidazol-1-yl)propanamide derivatives” (Med Chem Res, 2012) are described below.

Data set [1] has as its system Mus musculus. Put plainly: Anticonvulsant activity in Mus musculus albino (mouse) assessed as protection against maximal electroshock-induced seizures at 100 mg/kg, po after 1 hr relative to phenytoin. Format: functional. (Protection in the maximal electroshock model is a classic sign of anticonvulsant action.)
In data set [2] the test system is Mus musculus. Nature of the data set: Anticonvulsant activity in Mus musculus albino (mouse) assessed as protection against maximal electroshock-induced seizures at 100 mg/kg, po after 1 hr. Format: functional.
Data set [3] relates to Mus musculus. Nature of the data set: Neurotoxicity in Mus musculus albino (mouse) assessed as stability time on rotorod at 100 mg/kg, po after 30 min. Further details: dose 100 mg/kg, route oral. As to conditions: in vivo, 0.5 h. Format: toxicity, organism-based. (In general: In the rotarod test animals must keep their balance on a rotating rod.)

As for `COc1ccc(C(=O)CNN2C(=O)/C(=C/c3ccc(F)cc3F)N=C2c2ccc(F)cc2)cc1`, the Activity in data set [1] is on record as 71.42%. As to `O=C(CNN1C(=O)/C(=C/c2ccc(F)cc2F)N=C1c1ccc(F)cc1)c1ccc(O)cc1`, in data set [1], the Activity is given as 57.15%. Take `CC(C(=O)Nc1ccccc1)N1C(=O)/C(=C/c2ccc(F)cc2F)N=C1c1ccc(F)cc1` (centres undefined): the Activity was 24.77% in data set [1] and -0.94% in data set [2]. Take `CC(C(=O)Nc1ccc(C#N)cc1)N1C(=O)/C(=C/c2ccc(F)cc2F)N=C1c1ccc(F)cc1` (centres undefined): the Activity in data set [1] is reported as 96.42%. Further, the Time in data set [3] was found to be 285 s. The corresponding values for `COc1ccc(NC(=O)C(C)N2C(=O)/C(=C/c3ccc(F)cc3F)N=C2c2ccc(F)cc2)cc1` (centres undefined) are 96.42% and 219 s. Take `O=C(CNN1C(=O)/C(=C/c2ccc(F)cc2F)N=C1c1ccc(F)cc1)c1ccccc1`: the Activity is 37.5% in data set [1] and 49.96% in data set [2].

Consider `O=C(CNN1C(=O)/C(=C/c2ccc(F)cc2F)N=C1c1ccc(F)cc1)c1ccc([N+](=O)[O-])cc1`, for which the Activity in data set [1] was 64.28%.

Take `O=C(CNN1C(=O)/C(=C/c2ccc(F)cc2F)N=C1c1ccc(F)cc1)c1ccc(-c2ccccc2)cc1`: in data set [1], the Activity was 96.42%. `Cc1ccc(C(=O)CNN2C(=O)/C(=C/c3ccc(F)cc3F)N=C2c2ccc(F)cc2)cc1`: the Activity in data set [1] worked out at 92.84%. Further, the Time in data set [3] came to 174 s.
